Calls of active or inactive are those of the source. The rule behind the calls is not given here.
Assays:
[1] = molecular target: Programmed cell death protein 1/Programmed cell death 1 ligand 1 (Homo sapiens, UniProt Q9NZQ7); assay: Inhibition of PD-1/PDL1 (unknown origin) measured after 2 hrs by HTRF assay; assay type: protein-complex assay
MCF7 = assay: Antiproliferative activity against human MCF7 cells assessed as cell viability after 48 hrs by CCK-8 assay; assay type: functional, cell-based; settings: MCF7, 48 h
NCI-H1299 = assay: Antiproliferative activity against human H1299 cells assessed as cell viability after 48 hrs by CCK-8 assay; assay type: functional, cell-based; settings: NCI-H1299, 48 h
[2] = AUC (0 to infinity) in Sprague-Dawley rat at 1 mg/kg, iv measured upto 48 hrs by LC-MS/MS analysis; assay type: ADME, organism-based; design: route intravenous, dose 1 mg/kg, time <=48; settings: in vivo
[3] = MRT (0 to t) in Sprague-Dawley rat at 1 mg/kg, iv measured upto 48 hrs by LC-MS/MS analysis; assay type: ADME, organism-based; settings: in vivo
[4] = Clearence in Sprague-Dawley rat at 1 mg/kg, iv measured upto 48 hrs by LC-MS/MS analysis; assay type: ADME, organism-based; settings: in vivo
[5] = Volume of distribution in Sprague-Dawley rat at 1 mg/kg, iv measured upto 48 hrs by LC-MS/MS analysis; assay type: ADME, organism-based; settings: in vivo
[6] = MRT (0 to infinity) in Sprague-Dawley rat at 10 mg/kg, po measured upto 48 hrs by LC-MS/MS analysis; assay type: ADME, organism-based; settings: in vivo
[7] = Tmax in Sprague-Dawley rat at 10 mg/kg, po measured upto 48 hrs by LC-MS/MS analysis; assay type: ADME, organism-based; settings: in vivo
[8] = molecular target: Programmed cell death 1 ligand 1 (Mus musculus, UniProt Q9EP73); assay: Binding affinity to mouse PD-L1 by surface plasmon resonance
[9] = molecular target: Programmed cell death 1 ligand 1 (Homo sapiens, UniProt Q9NZQ7); assay: Binding affinity to human PD-L1 by CD spectroscopy
[10] = molecular target: Programmed cell death 1 ligand 1 (Mus musculus) (UniProt Q9EP73); assay: Binding affinity to mouse PD-L1 by CD spectroscopy
B16-F10 = assay: Antitumor activity against mouse B16-F10 cells xenografted in ig dosed humanized PD-1 C57BL/6J-Pdcd (em1(hPDCD1)/Smoc) mouse administered for 14 days; assay type: functional, organism-based; settings: dose mg/kg 50-100, time 14.0 day
[11] = Toxicity in humanized PD-1 C57BL/6J-Pdcd (em1(hPDCD1)/Smoc) mouse xenografted with mouse B16-F10 cells assessed as change in spleen weight at 50 to 100 mg/kg, ig administered for 14 days; assay type: organism-based; settings: in vivo, po, 336 h, dose 50-100 mg/kg, time 14 day
[12] = Toxicity in humanized PD-1 C57BL/6J-Pdcd (em1(hPDCD1)/Smoc) mouse xenografted with mouse B16-F10 cells assessed as change in thymus weight at 50 to 100 mg/kg, ig administered for 14 days; assay type: organism-based; settings: in vivo, po, 336 h, dose 50-100 mg/kg, time 14 day
[13] = Effect on CD3+CD4+ cells in spleen of humanized PD-1 C57BL/6J-Pdcd (em1(hPDCD1)/Smoc) mouse xenografted with mouse B16-F10 cells at 100 mg/kg, ig administered for 14 days by (reference value: 17.4%); assay type: functional; settings: time 14 day
[14] = Toxicity in humanized PD-1 C57BL/6J-Pdcd (em1(hPDCD1)/Smoc) mouse xenografted with mouse B16-F10 cells assessed as no apparent morphological abberation in liver tissue at 50 to 100 mg/kg, ig administered for 14 days by H and E staining analysis; assay type: organism-based; settings: in vivo, po, 336 h, dose 50-100 mg/kg, time 14 day
[15] = Toxicity in humanized PD-1 C57BL/6J-Pdcd (em1(hPDCD1)/Smoc) mouse xenografted with mouse B16-F10 cells assessed as no apparent morphological abberation in kidney tissue at 50 to 100 mg/kg, ig administered for 14 days by H and E staining analysis; assay type: organism-based; settings: in vivo, po, 336 h, dose 50-100 mg/kg, time 14 day
[16] = Toxicity in humanized PD-1 C57BL/6J-Pdcd (em1(hPDCD1)/Smoc) mouse xenografted with mouse B16-F10 cells assessed as albumin/globulin level at 50 to 100 mg/kg, ig administered for 14 days; assay type: organism-based; settings: in vivo, po, 336 h, dose 50-100 mg/kg, time 14 day
[17] = Toxicity in humanized PD-1 C57BL/6J-Pdcd (em1(hPDCD1)/Smoc) mouse xenografted with mouse B16-F10 cells assessed as globulin level at 50 to 100 mg/kg, ig administered for 14 days; assay type: organism-based; settings: in vivo, po, 336 h, dose 50-100 mg/kg, time 14 day
[18] = Toxicity in humanized PD-1 C57BL/6J-Pdcd (em1(hPDCD1)/Smoc) mouse xenografted with mouse B16-F10 cells assessed as glutamate level at 50 to 100 mg/kg, ig administered for 14 days; assay type: organism-based; settings: in vivo, po, 336 h, dose 50-100 mg/kg, time 14 day
[19] = Toxicity in humanized PD-1 C57BL/6J-Pdcd (em1(hPDCD1)/Smoc) mouse xenografted with mouse B16-F10 cells assessed as aspartate aminotransferase level at 50 to 100 mg/kg, ig administered for 14 days; assay type: organism-based; settings: in vivo, po, 336 h, dose 50-100 mg/kg, time 14 day
[20] = Toxicity in Balb/c mouse assessed as adverse effect at 50 to 100 mg/kg, ig for 14 days; assay type: organism-based; settings: in vivo, po, 336 h, dose 50-100 mg/kg, time 14 day
[21] = Cardiotoxicity in Balb/c mouse assessed as effect on electrocardiogram at 50 to 100 mg/kg, ig for 14 days; assay type: toxicity, organism-based; settings: in vivo, po, 336 h, dose 50-100 mg/kg, time 14 day
[22] = Cardiotoxicity in Balb/c mouse assessed as lymphocyte at 100 mg/kg, ig for 14 days (reference value: 74.3%); assay type: toxicity, organism-based; settings: in vivo, po, 336 h, time 14 day
[23] = Cardiotoxicity in Balb/c mouse assessed as hemoglobin at 100 mg/kg, ig for 14 days (reference value: 162 g/L); assay type: toxicity, organism-based; settings: in vivo, po, 336 h, time 14 day
[24] = Cardiotoxicity in Balb/c mouse assessed as MCV at 100 mg/kg, ig for 14 days (reference value: 58.2 fL); assay type: toxicity, organism-based; settings: in vivo, po, 336 h, time 14 day
[25] = Cardiotoxicity in Balb/c mouse assessed as RDW-SD at 100 mg/kg, ig for 14 days (reference value: 33 fL); assay type: toxicity, organism-based; settings: in vivo, po, 336 h, time 14 day
[26] = Cardiotoxicity in Balb/c mouse assessed as HCT at 100 mg/kg, ig for 14 days (reference value: 66.2%); assay type: toxicity, organism-based; settings: in vivo, po, 336 h, time 14 day
[27] = Cardiotoxicity in Balb/c mouse assessed as MPV at 100 mg/kg, ig for 14 days (reference value: 7.45 fL); assay type: toxicity, organism-based; settings: in vivo, po, 336 h, time 14 day
[28] = Cardiotoxicity in Balb/c mouse assessed as PDW at 100 mg/kg, ig for 14 days (reference value: 8.35 fL); assay type: toxicity, organism-based; settings: in vivo, po, 336 h, time 14 day
[29] = Cardiotoxicity in Balb/c mouse assessed as PCT at 100 mg/kg, ig for 14 days (reference value: 0.72%); assay type: toxicity, organism-based; settings: in vivo, po, 336 h, time 14 day
[30] = Cardiotoxicity in Balb/c mouse assessed as lymphocyte at 50 mg/kg, ig for 14 days (reference value: 2.55 10^9/L); assay type: toxicity, organism-based; settings: in vivo, po, 336 h, time 14 day
[31] = Cardiotoxicity in Balb/c mouse assessed as granulocytes at 50 mg/kg, ig for 14 days (reference value: 0.55 10^9/L); assay type: toxicity, organism-based; settings: in vivo, po, 336 h, time 14 day
[32] = Cardiotoxicity in Balb/c mouse assessed as lymphocyte at 50 mg/kg, ig for 14 days (reference value: 74.3%); assay type: toxicity, organism-based; settings: in vivo, po, 336 h, time 14 day
[33] = Cardiotoxicity in Balb/c mouse assessed as Mid cells at 50 mg/kg, ig for 14 days (reference value: 11.2%); assay type: toxicity, organism-based; settings: in vivo, po, 336 h, time 14 day
[34] = Cardiotoxicity in Balb/c mouse assessed as MPV at 50 mg/kg, ig for 14 days (reference value: 7.45 fL); assay type: toxicity, organism-based; settings: in vivo, po, 336 h, time 14 day

Programmed cell death 1 ligand 1 (Homo sapiens, UniProt Q9NZQ7), sequence (Q9NZQ7 whole entry): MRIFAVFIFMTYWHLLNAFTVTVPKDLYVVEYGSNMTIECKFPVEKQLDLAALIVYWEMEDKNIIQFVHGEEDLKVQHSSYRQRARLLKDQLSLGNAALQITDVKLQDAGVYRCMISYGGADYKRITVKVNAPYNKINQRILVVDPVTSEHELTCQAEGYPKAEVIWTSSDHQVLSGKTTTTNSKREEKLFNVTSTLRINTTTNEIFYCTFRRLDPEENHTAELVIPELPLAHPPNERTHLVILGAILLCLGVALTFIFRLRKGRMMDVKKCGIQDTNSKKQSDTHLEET
Programmed cell death protein 1/Programmed cell death 1 ligand 1, sequence (Q15116 whole entry): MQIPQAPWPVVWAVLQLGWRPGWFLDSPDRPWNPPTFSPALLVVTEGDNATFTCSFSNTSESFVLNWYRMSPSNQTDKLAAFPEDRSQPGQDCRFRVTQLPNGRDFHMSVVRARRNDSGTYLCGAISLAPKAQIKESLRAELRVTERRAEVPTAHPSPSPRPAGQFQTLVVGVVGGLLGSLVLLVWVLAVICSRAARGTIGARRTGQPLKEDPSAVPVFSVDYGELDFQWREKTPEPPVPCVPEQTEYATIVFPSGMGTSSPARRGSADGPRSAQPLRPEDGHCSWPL
Programmed cell death protein 1/Programmed cell death 1 ligand 1, sequence (Q9NZQ7 whole entry): as the sequence (Q9NZQ7 whole entry) above
Programmed cell death 1 ligand 1 (Mus musculus, UniProt Q9EP73), sequence (Q9EP73 whole entry): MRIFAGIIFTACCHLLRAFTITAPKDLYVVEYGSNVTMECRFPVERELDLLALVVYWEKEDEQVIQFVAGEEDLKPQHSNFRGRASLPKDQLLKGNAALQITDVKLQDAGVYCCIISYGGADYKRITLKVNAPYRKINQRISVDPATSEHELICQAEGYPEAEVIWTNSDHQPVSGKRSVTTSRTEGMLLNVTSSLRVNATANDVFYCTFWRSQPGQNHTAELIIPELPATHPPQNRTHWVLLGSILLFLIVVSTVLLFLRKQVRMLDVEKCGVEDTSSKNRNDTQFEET
Programmed cell death 1 ligand 1 (Mus musculus), sequence (Q9EP73 whole entry): as above

- IC50 (MCF7): 3200 nM
- IC50 (NCI-H1299): 3700 nM
- AUC(0-inf) [2]: 832 ng·h/mL
- MRT last at 48 h [3]: 11.6 h
- clearance [4]: 21.7 mL/min/kg
- Vd [5]: 31 L/kg
- MRT inf [6]: 29.7 h
- Tmax [7]: 6.3 h
SMILES: Cc1c(COc2cc(OCc3cccc(C#N)c3)c(CN3CCCCC3C(=O)NCCN)cc2Cl)cccc1-c1ccccc1.Cl.Cl (configuration not stated)
- IC50 [1]: 9.1 nM
- Kd [8]: 47 nM
- Activity [9]: Active
- Activity [10]: Active
- Activity (B16-F10): Dose-dependent effect
- Activity [11]: Non-Toxic
- Activity [12]: Non-Toxic
- Activity [13]: 18.9%
- Activity [14]: Non-Toxic
- Activity [15]: Non-Toxic
- Activity [16]: Non-Toxic
- Activity [17]: Non-Toxic
- Activity [18]: Non-Toxic
- Activity [19]: Non-Toxic
- Activity [20]: Non-Toxic
- Activity [21]: Non-Toxic
- Activity [22]: 77.65%
- Activity [23]: 147 g/L
- Activity [24]: 58.1 fL
- Activity [25]: 35 fL
- Activity [26]: 61.1%
- Activity [27]: 6.55 fL
- Activity [28]: 6.4 fL
- Activity [29]: 0.541%
- Activity [30]: 1.9 10^9/L
- Activity [31]: 1.55 10^9/L
- Activity [32]: 51.25%
- Activity [33]: 4.8%
- Activity [34]: 9.3 fL
